# In patent publication US12037354B2, “Cyclic pantetheine derivatives and uses thereof” (VectivBio Comet AG, priority 2018, dated 2024):
# Tested on: primary culture of rat embryo mesencephalic cells (microglia, astrocytes and neurons)
# Assay: Neuroprotection against LPS damage (NO, TNF-α, IL-1β release, tyrosine hydroxylase positive neurons), Example 848
# Assay type: cell-based
# Conditions: 10 uM; for % reversion of NO release from neurons: after 5 days of LPS exposure
# Procedure: Drug preparation. […] The stock solutions will be prepared 1000× the concentration in 100% DMSO. The final concentration of the vehicle (DMSO) is set at 0.1%.
# Test animals. Pregnant Wistar rats (Janvier; France) are used for the study. They are group-housed and maintained in a room with controlled temperature (21-22° C.) and a reversed light-dark cycle (12 h/12 h; lights on: 17:30-05:30; lights off: 05:30-17:30) with food and water available ad libitum.
# The protocol is performed in 3 independent cultures. For each culture, each condition is performed in sextuplicate.
# Female rat of 15 days gestation is killed by cervical dislocation. Fetuses are removed from the uterus and their brains are harvested and placed in ice-cold medium (Leibovitz's L15 medium, Gibco). Only ventral mesencephalic flexure is used for the cell preparations. The midbrain is dissociated by trypsinization. The reaction is stopped, and the suspension is triturated and centrifuged. The pellet of dissociated cells is resuspended in culture medium consisted of DMEM-F12 (Gibco), containing 10% FBS (ATCC), 10% Horse serum (Gibco) and 2 mM L-glutamine (Gibco). Viable cells are counted and seeded on 96-well plates, precoated with poly-L-lysine. Cells are maintained in a humidified incubator at 37° C. in 5% CO2-95% air atmosphere. Half of the medium is changed on day 2 and day 5.
# Treatment. On day 7, culture media are removed and replaced by new medium consisting of DMEM-F12 (Gibco) supplemented with 2% FBS (ATCC), 2% Horse serum (Gibco) and 2 mM L-glutamine (Gibco) and containing vehicle or test substances. After 1-hour exposure, LPS at 10 ng/ml is added and exposure further continued for 24 hours or 5 days period.
# Inflammatory response measurement and neuronal death evaluation. NO production is measured in the media 24 h and 5 days after LPS exposure using the Griess reagent kit (Molecular Probes). The Griess reagent Assay is a colorimetric reaction assay which measures the conversion of a sulfanilic salt into an azo dye product by nitrite. Visible wavelength absorbance data is collected using a 96-well plate reader at 570 nm (Multiskan EX, Thermo Fisher, France).
# IL-10 and TNF-α release are measured in the media 24 h after LPS exposure using the ELISA development kit (PeproTech). The ELISA plate, previously coated with anti-IL-10 or anti-TNF-α antibody at 1 μg/ml, is incubated 1 h with PBS containing 1% of BSA (bovine serum albumin). […] Visible wavelength absorbance data is collected using a 96-well plate reader at 405 nm with wavelength correction set at 650 nm (Multiskan EX, Thermo Fisher, France). […]
# Statistical Analysis. The drug-induced effect on NO and cytokines is calculated by setting the response of the LPS-stimulated control as 100%. […]
smiles,measurement,setting,value
CC(=O)CC(=O)SCCNC(=O)CCNC(=O)[C@@H]1OP(=O)(O)OCC1(C)C [Compound 42],% reversion of TH positive neurons,after 5 days of LPS exposure (Example 949),≥15%
same,% reversion of TH positive neurons,after 5 days of LPS exposure (Example 950),≥50%
same,% reversion of NO release from neurons,compared to LPS induction alone,≥10%
same,% reversion of NO release from neurons,LPS-induced NO release,≥10%
